{
  "source": "paper PMC4503439",
  "about": "“Dose-Independent ADME Properties and Tentative Identification of Metabolites of α-Mangostin from Garcinia mangostana in Mice by Automated Microsampling and UPLC-MS/MS Methods” (PLoS ONE, 2015)",
  "key": {"[1]": {"experiment": "Tentative identification of metabolites from α-MG by UPLC-MS/MS", "type": "in vivo", "conditions": "mice after intravenous and oral α-MG; S9 fractions after 30-min incubation", "text": "Probable metabolites of α-MG were identified using the simultaneous full scan MS, MRM and MS/MS modes in a Waters UPLC-XEVO TQ system (Waters Corporation, Milford, USA) to confirm the structures of any metabolites. […] Structural elucidation of the metabolites was based on the fragmentation patterns of parent ion from the MS/MS mode at a collision energy of 10 to 20 eV generating daughter ions. The mass transitions for α-MG was m/z 411.21 → 354.85 (collision energy of 20 eV and collision cell exit potential of 25 eV, respectively). The unknown masses were further analyzed in MS/MS (daughter scan) mode with the electrospray ionization interface used to generate positive and negative ions at a capillary voltage of 3.0 kV, source temperature of 350°C and desolvation gas temperature of 650°C. The MRM methods for identification of possible metabolites generated by phase I and/or II reactions were included.\nThese compounds were separated on a reversed-phase C18 column (XSELECT CSH, 2.1 mm × 100 mm i.d., 1.7-μm particle size; Waters, Ireland) with a flow rate of 0.35 mL/min. The mobile phase composition was started at 95: 5 (v/v) of distilled water containing 0.1% formic acid (A) and acetonitrile (B) and gradually changed to 35: 65 (v/v) for 30 min, and then switched back to 95: 5 (v/v) for 40 min."}, "[2]": {"experiment": "Mouse plasma protein binding using an equilibrium dialysis technique", "type": "in vitro ADME", "conditions": "pH 7.4, fresh mouse plasma", "experimental": "A 250 μL of mouse plasma was dialyzed against 250 μL of isotonic Sørensen phosphate buffer with pH 7.4 containing 3% (w/v) dextran (‘the buffer’) in a dialysis cell using a Spectra/Por 4 membrane (molecular weight cutoff of 12000–14000; Spectrum Medical Industries). α-MG was spiked into the plasma compartment to produce an initial concentration of 1 or 20 μg/mL and all other procedures followed the reported method."}, "[3]": {"experiment": "Pharmacokinetics of α-MG after oral administration to mice (automated microsampling)", "type": "in vivo", "conditions": "for CL renal / Cmax / AUC / Tmax / half-life / Ae 0–24 h / GI 24 h: oral; for Tmax: median (ranges); for half-life: read-out: Terminal half-life", "experimental": "The surgical procedures were conducted under intramuscular injection anesthesia with 125 mg (1.5 mL)/kg of tiletamine HCl and zolazepam HCl mixture. The carotid artery (for intravenous and oral studies) and the jugular vein (for intravenous study) were cannulated using CX-2052S and CX-2022S catheters (BASi, West Lafayette, IN), respectively. After the mice awoke from anesthesia, the administration of α-MG and blood sampling were performed, [12], [31].\nα-MG (the same solution as used in the intravenous study) at doses of 10, 50 and 100 mg (10 mL)/kg was administered orally using a gastric gavage tube after overnight fasting with free access to water. A blood sample using the microsampling system was collected via the carotid artery at 0, 5, 15, 30, 60, 90, 120, 180, 240, 300 and 360 min after the oral administration of α-MG. Other procedures were similar to those in the intravenous study.\nThe analytical method for measuring α-MG was modified from a previous report. In sample preparation, 100 μL of acetonitrile containing 1 μg/mL IS was added to 50 μL of aliquot of the sample. After vortex-mixing and centrifugation (15000 × g for 10 min), 10 μL of the supernatant was directly injected into a reversed-phase C18 column (Cadenza CD-C18, 2 mm × 75 mm i.d., 3-μm particle size; Imtakt, USA) kept at 4°C until injection. The analytes were monitored using a API4000 triple quadrupole mass spectrometer (AB Sciex, Foster City, CA) equipped with a turbo ion-spray interface for electrospray ionization and operated in positive ion mode at 5500 V and 500°C at 50 L/min of nebulizing gas flow, 50 L/min of turbo ion-spray gas flow, 20 L/min of curtain gas flow, 5500 V of ring voltage and 5 Torr of collision gas (nitrogen) pressure.\nStandard methods were used to calculate the following pharmacokinetic parameters using a non-compartmental analysis (WinNonlin 2.1; Pharmasight Corp., Mountain View, CA). The extent of absolute oral bioavailability (F) was calculated by dividing the AUCoral/AUCiv at the same dose. The peak plasma concentration (C max) and time to reach C max (T max) were read directly from the […] data."}, "Caco2 cell line": {"test_system": "Caco2 cell line", "parameters": "method as in PMID 19415666", "conditions": "cited from earlier work"}, "[4]": {"experiment": "Metabolism of α-MG in in vitro S9 fraction of liver", "type": "in vitro ADME, mice", "conditions": "30 min incubation, NADPH and UDPGA", "text": "The procedures for using S9 fractions from various tissues were similar those already reported. Each liver, stomach, small intestine, large intestine, lung, heart, kidney, fat, mesentery, muscle, and brain was excised after cervical dislocation (n = 6). Each tissue sample was rinsed with cold 0.9% NaCl-injectable solution, blotted dry with tissue paper and weighed. Then each tissue was homogenized with a volume of 0.25 M sucrose at 4 times of each tissue. Metabolic activity was initiated by adding a 100 μL aliquot of the 9000 × g supernatant fraction (S9) of each tissue to a 135 μL of Tris-buffer (pH 7.4), 5 μL of 0.9% NaCl-injectable solution with 1 or 20 μg/mL α-MG as a final concentration, 5 μL (1 mM) of NADPH and 5 μL (3.3 mM) of UDPGA. A 250 μL aliquot of acetonitrile (containing 1 μg/mL of the IS) was added after a 30 min incubation in a thermomixer (37°C and 500 opm) to terminate the enzyme activity. The amount of remaining α-MG in the S9 fraction of each tissue was determined using the HPLC-MS/MS analytical method."}},
  "note": "Read-outs that look alike come from different tables or passages of the source.",
  "data": [
    {"compound": "COc1c(O)cc2oc3cc(O)c(CC=C(C)C)c(O)c3c(=O)c2c1CC=C(C)C", "note": "[α-MG, α-Mangostin]", "values": [
      {"measurement": "Source (samples in which detected)", "setting": "[1]", "value": "plasma, urine, feces, liver, small intestine, S9 fractions of liver and small intestine"},
      {"measurement": "fraction unbound at 1 μg/mL", "setting": "[2]; 1 μg/mL", "value": 0.082},
      {"measurement": "fraction unbound at 20 μg/mL", "setting": "[2]; 20 μg/mL", "value": 0.107},
      {"measurement": "first blood sampling time point at which detected in plasma", "setting": "[3]; after oral administration", "value": 5, "unit": "min"},
      {"measurement": "F unabs ('true' fraction of the oral dose unabsorbed)", "setting": "[3]; calculated by reported equation assuming linear pharmacokinetics", "value": 0.434},
      {"measurement": "bioavailability", "setting": "[3]; mouse, plasma, oral 10 mg/kg, AUCoral/AUCiv at the same dose, read-out: F (absolute oral bioavailability)", "value": 2.29, "unit": "%"},
      {"measurement": "CL renal", "setting": "[3]; mouse, plasma, 10 mg/kg", "value": "0.535 ± 0.309", "unit": "mL/min/kg"},
      {"measurement": "Cmax", "setting": "[3]; mouse, plasma, 10 mg/kg", "value": "40.3 ± 30.7", "unit": "ng/mL"},
      {"measurement": "AUC", "setting": "[3]; mouse, plasma, 10 mg/kg (n = 8)", "value": 130, "unit": "ng·h/mL"},
      {"measurement": "Tmax", "setting": "[3]; mouse, plasma, 10 mg/kg", "value": 1, "unit": "h"},
      {"measurement": "half-life", "setting": "[3]; mouse, plasma, 10 mg/kg", "value": "177 ± 71.1", "unit": "min"},
      {"measurement": "CL renal", "setting": "[3]; mouse, plasma, 50 mg/kg", "value": "0.547 ± 0.309", "unit": "mL/min/kg"},
      {"measurement": "Cmax", "setting": "[3]; mouse, plasma, 50 mg/kg", "value": "242 ± 35", "unit": "ng/mL"},
      {"measurement": "AUC", "setting": "[3]; mouse, plasma, 50 mg/kg (n = 7)", "value": 622, "unit": "ng·h/mL"},
      {"measurement": "Tmax", "setting": "[3]; mouse, plasma, 50 mg/kg", "value": 0.5, "unit": "h"},
      {"measurement": "half-life", "setting": "[3]; mouse, plasma, 50 mg/kg", "value": "197 ± 81", "unit": "min"},
      {"measurement": "CL renal", "setting": "[3]; mouse, plasma, 100 mg/kg", "value": "0.418 ± 0.229", "unit": "mL/min/kg"},
      {"measurement": "Cmax", "setting": "[3]; mouse, plasma, 100 mg/kg", "value": "709 ± 397", "unit": "ng/mL"},
      {"measurement": "AUC", "setting": "[3]; mouse, plasma, 100 mg/kg (n = 9)", "value": 1390, "unit": "ng·h/mL"},
      {"measurement": "Tmax", "setting": "[3]; mouse, plasma, 100 mg/kg", "value": 1, "unit": "h"},
      {"measurement": "half-life", "setting": "[3]; mouse, plasma, 100 mg/kg", "value": "151 ± 49.3", "unit": "min"},
      {"measurement": "Ae 0–24 h", "setting": "[3]; 10 mg/kg", "value": "0.0255 ± 0.0107 % of dose"},
      {"measurement": "GI 24 h", "setting": "[3]; 10 mg/kg", "value": "43.5 ± 10.6 % of dose"},
      {"measurement": "Ae 0–24 h", "setting": "[3]; 50 mg/kg", "value": "0.0315 ± 0.0241 % of dose"},
      {"measurement": "GI 24 h", "setting": "[3]; 50 mg/kg", "value": "40.2 ± 11.6 % of dose"},
      {"measurement": "Ae 0–24 h", "setting": "[3]; 100 mg/kg", "value": "0.0270 ± 0.0113 % of dose"},
      {"measurement": "GI 24 h", "setting": "[3]; 100 mg/kg", "value": "41.2 ± 4.51 % of dose"},
      {"measurement": "absorption in the Caco2 cell line", "setting": "Caco2 cell line", "value": "low absorption"},
      {"measurement": "disappearance of spiked α-MG", "setting": "[4]; liver S9, 1 μg/mL", "value": 57.3, "unit": "%"},
      {"measurement": "disappearance of spiked α-MG", "setting": "[4]; liver S9, 20 μg/mL", "value": 51.4, "unit": "%"}
    ]}
  ]
}
